Experimental data reported in PubChem BioAssay AID608 (Sanford-Burnham Center for Chemical Genomics, 2007).
The source made the active and inactive calls. How the calls were made is not given here.

Molecular target: Peptidyl-prolyl cis-trans isomerase FKBP1A (Homo sapiens) (UniProt P62942)
Experiment: small-molecule binding to FKBP12 – biophysical, NMR detection (AID 608)
Conditions: purified FKBP12

Chain of Peptidyl-prolyl cis-trans isomerase FKBP1A (Homo sapiens) (P62942 whole entry, looked up): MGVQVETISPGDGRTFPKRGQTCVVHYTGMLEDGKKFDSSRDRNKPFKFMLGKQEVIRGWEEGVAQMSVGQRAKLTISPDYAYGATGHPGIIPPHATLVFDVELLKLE

Structure (SMILES)	Kd
Cc1cccnc1NC1=NCC(C)S1 (configuration not stated)	> 4 mM (inactive)
OCC1CCCN2CCCCC12 (configuration not stated)	> 4 mM (inactive)
O=C1C2CCCCC2C(=O)N1c1ccc(O)cc1 (configuration not stated)	> 4 mM (inactive)
Nc1nc2ccc(S(N)(=O)=O)cc2s1	> 4 mM (inactive)
Brc1ccccc1Cn1c(-c2cscn2)nc2ccccc21	inactive
O=c1cc(CO)oc(CN2CCCCC2)c1O	> 4 mM (inactive)
O=C(c1ncc[nH]1)c1ccccc1C(=O)N1CCOCC1	> 4 mM (inactive)
O=c1cnnc(Nc2ccc(O)cc2)[nH]1	> 4 mM (inactive)
O=C(Nc1ccc(O)cc1)N1CCOCC1	> 4 mM (inactive)
COc1ccc(S(=O)(=O)N2CCC(C(N)=O)CC2)cc1	> 4 mM (inactive)
O=C(NN=C1CCCC1)c1ccncc1	> 4 mM (inactive)
CCOC(=O)c1c(C)nc2c(C#N)cnn2c1C	> 4 mM (inactive)
O=C(NC1=NCCS1)c1cccc(F)c1	> 4 mM (inactive)
Oc1ccc(-c2n[nH]c(=S)n2Cc2ccco2)cc1	> 4 mM (inactive)
CC(=O)Nc1cc2c(cc1C(=O)C(C)C)OCCO2	> 4 mM (inactive)
[O-][n+]1c2ccccc2[n+]([O-])c2cc(O)ccc21	> 4 mM (inactive)
O=C(Nc1ccon1)c1ccccc1Cl	> 4 mM (inactive)
O=C(O)/C=C/C=C/c1ccccc1	> 4 mM (inactive)
NCc1ccc2c(c1)OCO2	> 4 mM (inactive)
Nc1c(N2CCCC2)cnn(-c2ccccc2)c1=O	> 4 mM (inactive)
NC(=O)CSc1ccc(-c2ccccc2)nn1	> 4 mM (inactive)

Structure (SMILES)	Kd
CC(=O)CC1(O)C(=O)Nc2ccccc21 (configuration not stated)	> 4 mM (inactive)
Nc1nc2[nH]c(=O)c(=O)[nH]c2c(=O)[nH]1	> 4 mM (inactive)
C=CCNC(=O)c1nn2cccnc2c1Cl	> 4 mM (inactive)
Nc1ccc(-n2cccc2)cc1	> 4 mM (inactive)
Cc1cc(C)c(C#N)c(N2CCCC2)n1	> 4 mM (inactive)
CC(=O)Nc1ccc(S(=O)(=O)N2CCN=C2C)cc1	> 4 mM (inactive)
Cc1cccc(N2CCN(C(=O)c3ccncc3)CC2)c1C	> 4 mM (inactive)
O=S1(=O)CCC(NC(=S)Nc2ccccc2)C1 (configuration not stated)	> 4 mM (inactive)
C=CCSc1[nH]c(=O)cc(C)c1C(N)=O	> 4 mM (inactive)
COc1c(C)c2c(c(O)c1C/C=C(\C)CCC(=O)O)C(=O)OC2	> 4 mM (inactive)
CC1CN=C(Nc2ccccc2)S1 (configuration not stated)	> 4 mM (inactive)
O=C1NC(=O)C(C(C[N+](=O)[O-])c2ccc(O)cc2)C(=O)N1 (configuration not stated)	> 4 mM (inactive)
Nc1ccc(S(=O)(=O)N2CCCCC2)cc1	> 4 mM (inactive)
C(=N\c1nccs1)/c1cccnc1	> 4 mM (inactive)
CC(=O)O[C@@H]1CC2C(C)(C)C=CC(=O)[C@]2(C)C2CC[C@@]3(C)[C@H](c4ccoc4)OC(=O)C4OC43[C@@]21C (some centres not stated)	> 4 mM (inactive)
Cc1ccc2cc(N)ccc2n1	> 4 mM (inactive)
COc1c(O)cccc1O	> 4 mM (inactive)
O=S(=O)(Nc1cccc2cn[nH]c12)c1ccc(F)cc1	> 4 mM (inactive)
CS(=O)(=O)CCCCN=C=S	> 4 mM (inactive)
O=C(Nc1ccccc1)C(=O)NC1CC1	> 4 mM (inactive)
CC(=O)O[C@@H]1CC2C(C)(C)[C@H](O)CC[C@]2(C)C2CC[C@@]3(C)[C@H](c4ccoc4)OC(=O)C4OC43[C@@]21C (some centres not stated)	> 4 mM (inactive)

Structure (SMILES)	Kd
COc1cccc(OC)c1C(=O)N1CCOCC1	> 4 mM (inactive)
O=C(CSc1ccnc(=O)[nH]1)NCc1ccccc1	> 4 mM (inactive)
O=C(O)c1ccc2c(c1)OCO2	> 4 mM (inactive)
O=c1c[n+]([O-])c2ccccc2n1OCc1ccccc1	> 4 mM (inactive)
Cc1nc(NC2=NCCC(=O)N2)nc2ccccc12	> 4 mM (inactive)
Nc1ncnc2c1ncn2CCN1CCOCC1	> 4 mM (inactive)
CC(=O)O[C@H]1CC[C@@]2(C)C(=CCC3C2CC[C@@]2(C)C3CC[C@@H]2C(C)CCCC(C)C)C1 (some centres not stated)	> 4 mM (inactive)
Oc1cc2c(cc1O)C1c3ccc(O)c(O)c3OCC1(O)C2 (configuration not stated)	> 4 mM (inactive)
NC(=O)CS(=O)(=O)c1ccc(Cl)cc1	> 4 mM (inactive)
CCOCC(=O)N1CCc2ccccc21	> 4 mM (inactive)
FC(F)(F)c1cccc(Cn2c(-c3cscn3)nc3ccccc32)c1	inactive
COc1ccc(CN2CCOCC2)c(C)c1C	> 4 mM (inactive)
COC(=O)C[C@@H]1C2(C)C(=O)[C@@H](CC3=C4CC(=O)O[C@@H](c5ccoc5)[C@]4(C)CCC32)[C@H](OC(C)=O)C1(C)C (some centres not stated)	> 4 mM (inactive)
O=C(Nc1nc2c(s1)CCCC2)c1cccnc1	> 4 mM (inactive)
Oc1ccc2c(c1)OCC1(O)Cc3cc(O)c(O)cc3C21 (configuration not stated)	> 4 mM (inactive)
COC(=O)C[C@H]1C2(C)CC34OC5(C)O[C@@]6([C@H](OC)C(OC(=O)C(C)C)[C@]7(C)C(/C(=C(/OC)C(C)C)C(=O)O[C@H]7c7ccoc7)[C@@]6(O5)[C@H](OC)[C@@]3(OC)C2OC(C)=O)[C@]14C (some centres not stated)	> 4 mM (inactive)
C[C@H]1C(=O)O[C@@H]2CCN3CC=C(COC(=O)[C@](C)(O)[C@]1(C)O)[C@H]23	> 4 mM (inactive)
COCC(=O)Nc1ccc(F)cc1F	> 4 mM (inactive)
Cc1nn2c(-c3ccncc3)nnc2c2ccccc12	> 4 mM (inactive)
COc1cccc(N2CCN(C(=O)c3cccnc3)CC2)c1	> 4 mM (inactive)
CN(C)C(=O)N1CCN(C(=O)c2ccco2)CC1	> 4 mM (inactive)

Structure (SMILES)	Kd
Cn1nc(-c2cccs2)cc1N	> 4 mM (inactive)
CC1=NN2C(=N)/C(=C\c3cccs3)C(=O)N=C2S1	> 4 mM (inactive)
Nc1nncn1C(=O)c1ccccc1Cl	> 4 mM (inactive)
O=C(Nc1ccccc1Cl)c1cnccn1	> 4 mM (inactive)
O=C(Nc1ccncc1)Nc1ccc(F)cc1F	> 4 mM (inactive)
CC1(C)CCC(C)(C)c2cc(C(=O)O)ccc21	> 4 mM (inactive)
O=C1C2C3C=CC(C3)C2C(=O)N1c1nccs1 (configuration not stated)	> 4 mM (inactive)
CC(=O)O[C@H]1C[C@@H](OC(C)=O)C(C)(C)C2CC(=O)[C@]3(C)C(CC[C@@]4(C)[C@H](C(=O)O)OC(=O)C5OC543)[C@]21C (some centres not stated)	> 4 mM (inactive)
Clc1ccccc1OCc1nc(-c2ccncc2)no1	> 4 mM (inactive)
COc1ccc(N/C(N)=N\c2nc(C)cc(C)n2)cc1	> 4 mM (inactive)
Cc1cc(SCC(=O)c2ccccc2)nc(=O)[nH]1	> 4 mM (inactive)
Cc1cccc(CSc2nncc(=O)[nH]2)c1	> 4 mM (inactive)
COc1cc(/C=C/C(=O)/C=C(O)/C=C/c2ccc(O)c(OC)c2)ccc1O	> 4 mM (inactive)
NS(=O)(=O)c1ccc(N=Cc2cccs2)cc1	> 4 mM (inactive)
NC(=O)CSc1nc2[nH]ncc2c(=O)[nH]1	> 4 mM (inactive)
CC1(C)N=C2C(=[N+]1[O-])CCC/C2=N\O	> 4 mM (inactive)
Cc1nn(-c2ccccc2C(=O)O)c(=O)c2ccccc12	> 4 mM (inactive)
NS(=O)(=O)c1ccc(NC(=O)/C=C\C(=O)O)cc1	> 4 mM (inactive)
Nc1nnc(C(F)(F)F)s1	> 4 mM (inactive)
